# Key:
# gel-filtered platelets = assay: In vitro inhibition of thrombin-induced gel-filtered platelet aggregation; format: cell-based; details: Homo sapiens; for inhibition at 50 µM: read-out: Platelet Aggregation % Inh. (50µM)
# Procedure: IN VITRO INHIBITION OF THROMBIN-INDUCED GEL-FILTERED PLATELET AGGREGATION ASSAY.
# The percentage of platelet aggregation is calculated as an increase in light transmission of compound-treated platelet concentrate vs. control-treated platelet concentrate. Human blood is obtained from drug free, normal donors into tubes containing 0.13M sodium citrate. Platelet rich plasma (PRP) is collected by centrifugation of whole blood at 200 x g for 10 min at 25°C. The PRP (5 mL) is gel filtered through Sepharose 2B (bed volume 50 mL), and the platelet count is adjusted to 2x10^7 platelets per sample. The following constituents are added to a siliconized cuvette: concentrated platelet filtrate and Tyrode's buffer (0.14M NaCl, 0.0027MKCl, 0.012M NaHCO3, 0.76 mM Na2HPO4, 0.0055M glucose, 2 mg/mL BSA and 5.0mM HEPES @ pH 7.4) in an amount equal to 350 µl, 50 µl of 20 mM calcium and 50 µl of the test compound. Aggregation is monitored in a BIODATA aggregometer for the 3 min following the addition of agonist (thrombin 50 µl of 1 unit/mL).
# GPIIb/IIIa = GPIIb/IIIa (Homo sapiens, UniProt P05106+P08514); assay: In vitro solid phase purified glycoprotein IIb/IIIa binding assay (biotinylated fibrinogen binding); details: for inhibition at 50 µM: read-out: Fibrinogen Binding % Inh. (50 µM)
# Sequence of GPIIb/IIIa (P08514 32-887 limits assumed): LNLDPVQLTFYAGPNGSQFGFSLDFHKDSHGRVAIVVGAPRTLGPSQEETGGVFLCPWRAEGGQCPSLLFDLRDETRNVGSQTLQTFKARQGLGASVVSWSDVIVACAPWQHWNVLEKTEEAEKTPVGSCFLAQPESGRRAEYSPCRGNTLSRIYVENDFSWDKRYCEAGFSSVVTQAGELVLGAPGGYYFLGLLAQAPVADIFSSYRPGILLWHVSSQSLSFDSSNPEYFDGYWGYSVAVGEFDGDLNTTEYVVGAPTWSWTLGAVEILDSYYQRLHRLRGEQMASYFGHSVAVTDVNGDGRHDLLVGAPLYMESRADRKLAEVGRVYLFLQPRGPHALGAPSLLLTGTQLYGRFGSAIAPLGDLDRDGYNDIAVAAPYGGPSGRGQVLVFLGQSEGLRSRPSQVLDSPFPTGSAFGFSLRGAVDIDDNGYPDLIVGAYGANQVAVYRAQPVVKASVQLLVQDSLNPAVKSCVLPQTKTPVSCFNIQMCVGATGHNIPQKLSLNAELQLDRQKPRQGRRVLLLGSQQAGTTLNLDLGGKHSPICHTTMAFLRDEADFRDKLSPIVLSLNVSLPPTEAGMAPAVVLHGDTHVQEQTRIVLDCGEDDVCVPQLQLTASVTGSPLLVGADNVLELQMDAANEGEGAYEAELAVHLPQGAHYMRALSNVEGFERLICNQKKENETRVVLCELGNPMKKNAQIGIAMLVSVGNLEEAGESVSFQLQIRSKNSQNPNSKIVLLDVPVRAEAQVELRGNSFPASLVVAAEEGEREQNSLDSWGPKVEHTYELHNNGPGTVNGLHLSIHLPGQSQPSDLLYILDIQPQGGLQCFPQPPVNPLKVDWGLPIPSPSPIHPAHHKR
# Sequence of GPIIb/IIIa (P08514 891-1039 partner limits assumed): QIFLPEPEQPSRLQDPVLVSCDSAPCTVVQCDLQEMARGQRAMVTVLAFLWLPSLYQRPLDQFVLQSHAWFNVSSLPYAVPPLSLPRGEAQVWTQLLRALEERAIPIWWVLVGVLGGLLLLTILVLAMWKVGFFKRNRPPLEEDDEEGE
# Sequence of GPIIb/IIIa (P05106 27-788): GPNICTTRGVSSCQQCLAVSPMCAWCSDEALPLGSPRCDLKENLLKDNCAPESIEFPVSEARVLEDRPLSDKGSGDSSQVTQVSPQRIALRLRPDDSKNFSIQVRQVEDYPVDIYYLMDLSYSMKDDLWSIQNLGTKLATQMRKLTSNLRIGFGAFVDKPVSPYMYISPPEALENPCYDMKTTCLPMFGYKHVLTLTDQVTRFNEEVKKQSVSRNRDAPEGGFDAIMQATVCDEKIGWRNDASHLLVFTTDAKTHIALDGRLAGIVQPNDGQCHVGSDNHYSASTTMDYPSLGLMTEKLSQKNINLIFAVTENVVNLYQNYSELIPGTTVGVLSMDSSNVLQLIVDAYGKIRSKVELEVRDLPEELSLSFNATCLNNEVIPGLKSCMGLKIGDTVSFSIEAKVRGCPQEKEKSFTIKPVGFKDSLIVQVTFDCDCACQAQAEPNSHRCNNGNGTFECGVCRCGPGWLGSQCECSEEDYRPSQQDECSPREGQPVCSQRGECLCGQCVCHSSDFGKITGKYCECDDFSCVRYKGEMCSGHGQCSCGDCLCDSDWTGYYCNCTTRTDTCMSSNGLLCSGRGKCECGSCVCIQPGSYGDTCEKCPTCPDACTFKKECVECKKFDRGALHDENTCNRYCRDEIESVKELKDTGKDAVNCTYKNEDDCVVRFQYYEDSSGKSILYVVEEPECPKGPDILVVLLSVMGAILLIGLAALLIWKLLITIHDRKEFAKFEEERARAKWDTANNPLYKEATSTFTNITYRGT
# Procedure: IN VITRO SOLID PHASE PURIFIED GLYCOPROTEIN IIB/IIIA BINDING ASSAY.
# The plate is covered and incubated overnight at 4°C. The GPIIb/IIa solution is discarded and 150 µl of 5% BSA is added and incubated at RT for 1-3 h. The plate is washed extensively with modified Tyrodes buffer. Biotinylated fibrinogen (25 µl/well) at 2 x final concentration is added to the wells that contain the test compounds (25 µl/well). The plate is covered and incubated at RT for 2-4 h. Twenty minutes prior to incubation completion, one drop of Reagent A (Vecta Stain ABC Horse Radish Peroxidase kit, Vector Laboratories, Inc.) and one drop Reagent B are added with mixing to 5 mL modified Tyrodes buffer mix and let stand. The ligand solution is discarded and the plate washed (5 x 200 µl/well) with modified Tyrodes buffer. Vecta Stain HRP-Biotin-Avidin reagent (50 µl/well, as prepared above) is added and incubated at RT for 15 min. The Vecta Stain solution is discarded and the wells washed (5 x 200 µl/well) with modified Tyrodes buffer. Developing buffer (10 mL of 50 mM citrate/phosphate buffer @ pH 5.3, 6 mg o-phenylenediamine, 6 µl 30% H2O2; 50 µl/well) is added and incubated at RT for 3-5 min, and then 2N H2SO4 (50 µl/well) is added. The absorbance is read at 490 nm.
# [1] = test system: collagen- or ADP-induced ex vivo platelet aggregation; assay: Ex vivo dog study (platelet aggregation, hemodynamics, bleeding time, coagulation, cell counts); format: in vivo, dogs
# Procedure: Adult mongrel dogs (8-13 kg) were anesthetized with sodium pentobarbital (35 mg/kg, i.v.) and artificially respired. Arterial blood pressure and heart rate were measured using a Millar catheter-tip pressure transducer inserted in a femoral artery. Another Millar transducer was placed in the left ventricle (LV) via a carotid artery to measure LV end diastolic pressure and indices of myocardial contractility. A lead II electrocardiogram was recorded from limb electrodes. Catheters were placed in a femoral artery and vein to sample blood and infuse drugs, respectively. Responses were continuously monitored using a Modular Instruments data aquisition system.
# Arterial blood samples (5-9 ml) were withdrawn into tubes containing 3.8% sodium citrate to prepare platelet rich plasma (PRP) and to determine effects on coagulation parameters: prothrombin time (PT) and activated partial thromboplastin time (APTT). Separate blood samples (1.5 ml) were withdrawn in EDTA to determine hematocrit and cell counts (platelets, RBC's and white cells). Template bleeding times were obtained from the buccal surface using a symplate incision devise and Whatman filter paper.
# Aggregation of PRP was performed using a BioData aggregometer. Aggregation of whole blood used a Chronolog impedance aggregometer. PT and APTT were determined on either a BioData or ACL 3000+ coagulation analyser. Cells were counted with a Sysmex K-1000.
# Compounds were solubilized in a small volume of dimethylformamide (DMF) and diluted with saline to a final concentration of 10% DMF. Compounds were administered by the intravenous route with a Harvard infusion pump. Doses was administered over a 15 min interval at a constant rate of 0.33 ml/min. Data were obtained after each dose and in 30 min intervals following the end of drug administration. Oral doses were administered as aqueous solutions via syringe.
Structure (SMILES),IC50 (gel-filtered platelets),inhibition at 50 µM (gel-filtered platelets),inhibition at 50 µM (GPIIb/IIIa),IC50 (GPIIb/IIIa),Duration of >50% inhibition of collagen- or ADP-induced ex vivo platelet aggregation ([1]; intravenous dosing 1 mpk),Duration of >50% inhibition of collagen- or ADP-induced ex vivo platelet aggregation ([1]; oral dosing 10 mpk)
"O=C(O)C(O)CNC(=O)[C@@H]1CCCN(C(=O)CCC2CCNCC2)C1 (single isomer, unassigned) [Compound 11, N-3-(4-Piperidinepropionyl)-R-(-)-nipecotyl-(3-amino-2-hydroxy) propionic acid]",1550 nM,99.2%,79.6%,,,
"CC(C)(C)C#CC(CC(=O)O)NC(=O)C1CCCN(C(=O)CCC2CCNCC2)C1 (single isomer, unassigned) [Compound 19]",79 nM,92.1%,99%,21 nM,30 min,90 min
"O=C(O)CC(NC(=O)C1CCCN(C(=O)CCC2CCNCC2)C1)c1ccccc1 (stereo not drawn) [Compound 1, N-3-(4-Piperidinepropionyl)-nipecotyl-(3-amino-3-phenyl) propionic acid]",3600 nM,83%,95%,3 nM,,
"CC(CNC(=O)C1CCCN(C(=O)NCC2CCNCC2)C1)C(=O)O (stereo not drawn) [Compound 2, N-(4-Piperidinemethylaminocarbonyl)-nipecotyl-(3-amino-2-methyl) propionic acid]",54000 nM,95.7%,93%,27 nM,,
"COC(=O)[C@@H](CC(=O)O)NC(=O)C1CCCN(C(=O)OCC2CCNCC2)C1 (stereo partly drawn) [Compound 3, N-(4-Piperidinemethyloxycarbonyl)-nipecotyl-D-aspartic acid α-methyl ester]",> 100000 nM,26.2%,81%,,,
"Cc1ccc(C(CC(=O)O)NC(=O)C2CCN(C(=O)CCC3CCNCC3)C2)cc1 (stereo not drawn) [Compound 4, N-3-(4-Piperidinepropionyl)-pyrrolidine-3-carboxy-[3-amino-3-(4-tolyl)]propionic acid]",26000 nM,81%,89.9%,121 nM,,
"CC(CC(=O)O)NC(=O)C1CCN(C(=O)CCC2CCNCC2)CC1 (stereo not drawn) [Compound 5, N-3-(4-Piperidinepropionyl)-isonipecotyl-(3-amino-3-methyl) propionic acid]",10000 nM,100%,89%,12 nM,,
O=C(O)CC(NC(=O)C1CCN(C(=O)CCC2CCNCC2)CC1)c1ccc(C(=O)O)cc1 (stereo not drawn) [Compound 6],73000 nM,71.2%,90.7%,197 nM,,
"CN1CCC(CCC(=O)N2CCCC(C(=O)NCCC(=O)O)C2)CC1 (stereo not drawn) [Compound 7, N-3-(4-N-Methyl-piperidinepropionyl)-nipecotyl-3-aminopropionic acid]",2400 nM,75.6%,100%,6 nM,,
"O=C(O)C1CN(C(=O)C2CCCN(C(=O)CCC3CCNCC3)C2)CCC1=O (stereo not drawn) [Compound 8, N-3-(4-Piperidinepropionyl)-nipecotyl-4-oxonipecotic acid]",,,93%,332 nM,,
"C[Si](C)(C)C#CC(CC(=O)O)NC(=O)C1CCCN(C(=O)CCC2CCNCC2)C1 (stereo not drawn) [Compound 9, N-3-(4-Piperidinepropionyl)-nipecotyl-[3-amino-3-(2-trimethylsilylethynyl)]propionic acid]",370 nM,90.9%,99%,2 nM,,
"NCCCCCC(=O)N1CCCC(C(=O)NC(CC(=O)O)c2cccnc2)C1 (stereo not drawn) [Compound 10, N-(6-Aminocaproyl)-nipecotyl-3-amino-3-(3-pyridyl)propionic acid]",1600 nM,85%,91.3%,,,
"O=C(O)CCNC(=O)C1CCCN(S(=O)(=O)CCC2CCNCC2)C1 (stereo not drawn) [Compound 12, N-3-(4-Piperidineethanesulfonyl)-nipecotyl-3-aminopropionic acid]",15500 nM,88%,97%,25 nM,,
"O=C(NCCc1nnn[nH]1)C1CCCN(C(=O)CCC2CCNCC2)C1 (stereo not drawn) [Compound 13, N-3-(4-Piperidinepropionyl)-nipecotyl-5H-(2-aminoethyl)tetrazole]",25500 nM,67%,95%,1390 nM,,
"CN1CCN(CCC(=O)N2CCCC(C(=O)NC(CC(=O)O)c3ccc4c(c3)OCO4)C2)CC1 (stereo not drawn) [Compound 14, N-3-(4-N-Methyl-piperazinepropionyl)-nipecotyl-[3-amino-3-(3,4-methylenedioxyphenyl)]propionic acid]",910 nM,91%,99%,4 nM,,
"CN1CCN(CCC(=O)N2CCCC(C(=O)NC(CC(=O)O)c3cnc4ccccc4c3)C2)CC1 (stereo not drawn) [Compound 15, N-3-(4-N-Methyl-piperazinepropionyl)-nipecotyl-[3-amino-3-(3-quinolinyl)]propionic acid]",1900 nM,92.2%,100%,9.1 nM,30 min,120 min
"O=C(O)CC(NC(=O)C1CCCCN(C(=O)CCC2CCNCC2)C1)c1cnc2ccccc2c1 (stereo not drawn) [Compound 17, N-3-(4-Piperidinepropionyl)-hexahydroazepine-3-carboxy-[3-amino-3-(3-quinolinyl)]propionic acid]",450 nM,89.6%,96%,5 nM,,
"O=C(O)C[C@H](NC(=O)C1CCCN(CCCC2CCNCC2)C1)c1ccc2c(c1)OCO2 (stereo partly drawn) [Compound 20, N-3-(4-Piperidinepropyl)-nipecotyl-[(S)-3-amino-3-(3,4-methylenedioxyphenyl)]propionic acid]",37000 nM,89.7%,99%,,,
"O=C(NC[C@@H]1NC(=O)N(Cc2ccccc2)C1=O)[C@@H]1CCCN(C(=O)CCC2CCNCC2)C1 [Compound 29, N-3-(4-Piperidinepropionyl)-R-(-)nipecotyl-aminomethyl-5-(S)-(3-N-benzyl)imidazoline-2.4-dione]",42000 nM,100%,100%,,,
"O=C(O)C[C@H](NC(=O)[C@@H]1CCCN(C(=O)CCC2CCNCC2)C1)c1cncc(Br)c1 [Compound 32, N-3-(4-Piperidinepropionyl)-R-(-)nipecotyl-[(S)-3-amino-3-(5-bromo-3-pyridyl)] propionic acid]",20 nM,,100%,,,
"N=CN1CCC(CCC(=O)N2CCCC(C(=O)NC(CC(=O)O)c3cccnc3)C2)CC1 [Compound 33, N-3-(4-Formamidinopiperidinepropionyl)-R-(-)nipecotyl-[(S)-3-amino-3-(3-pyridyl)] propionic acid]",300 nM,100%,100%,,,
